Measurements as given in US20120328735A1, “PROCESS FOR PREPARING CASEIN-DERIVED PEPTIDES BY FERMENTATION OF LACTIC ACID BACTERIA” (priority 2011, published 2012).
Ends that are not written are not given here.

Columns and labels:
[1] = test system: scopolamine-induced amnesia; experiment: Y-shaped maze test, spontaneous alternation behavior, scopolamine-induced amnesia; format: in vivo; conditions: male ddY mice, scopolamine 1 mg/kg s.c.
Description: Male ddY mice (about 7 weeks old) were used (n=15 to 75), and provided with food and water ad libitum. Asn-Ile-Pro-Pro-Leu-Thr-Gln-Thr-Pro-Val-Val-Val-Pro-Pro-Phe-Leu-Gln-Pro-Glu (SEQ ID NO: 1) was used as a test substance in amounts of 0.05 nmol/kg body weight (0.1 μg/kg body weight), 0.5 nmol/kg body weight (1 μg/kg body weight), 1.5 nmol/kg body weight (3 μg/kg body weight), 5 nmol/kg body weight (10 μg/kg body weight), 50 nmol/kg body weight (100 μg/kg body weight), and 500 nmol/kg body weight (1,000 μg/kg body weight). The test substance was administered as a single dose orally to mice 60 minutes before performing a Y-shaped maze test for evaluating spontaneous alternation behavior. Thirty minutes before performing the Y-shaped maze test, scopolamine was subcutaneously administered in an amount of 1 mg/kg body weight into the back to induce brain dysfunction (memory disorder and/or cognition disorder) in mice. In the Y-shaped maze test, as an experiment device, a Y-shaped maze was used in which the length for each arm was 40 cm; the wall height was 12 cm; the floor width was 3 cm; the upper part width was 10 cm; and three arms were connected to each other at an angle of 120°. Each mouse was placed in the end of any of the arms of the Y-shaped maze and allowed to explore freely in the maze over 8 minutes, and the sequence of the arms to which the mouse moved was recorded. The number of movements of the mouse to the arms within the measurement time was counted and used as the total number of entries; in the sequence, the combination in which three different arms were selected in succession (for example, with the three arms respectively called A, B, and C, if the sequence of the aims entered is ABCBACACB, the count is 4 inclusive of overlapping) was investigated, and the count number was used as the number of spontaneous alternation behaviors. The change in spontaneous alternation behavior (%) was calculated by dividing the number of spontaneous alternation behaviors by a number obtained by subtracting 2 from the total number of entries, and multiplying the resultant number by 100, and the percentage was used as an indicator of the spontaneous alternation behavior. […] The measured values were expressed as mean±standard error for each group. The significance of difference between the control group and the scopolamine control group was tested by Student's t-test. The significance of difference between the scopolamine control group and the peptide-administered group was tested by Dunnett's multiple comparison test after one-way analysis of variance.
Male ddY mice (about 7 weeks old) were used (n=15 to 45), and provided with food and water ad libitum. As test substances, Asn-Ile-Pro-Pro-Leu-Thr-Gln-Thr-Pro-Val-Val-Val-Pro-Pro-Phe-Leu-Gln-Pro-Glu (SEQ ID NO: 1) at 50 nmol/kg body weight (100 μg/kg body weight), or […]([…]; SEQ ID NO: 2) at 50 nmol/kg body weight (120 μg/kg body weight), or Ile-Pro-Pro-Leu-Thr-Gln-Thr-Pro-Val-Val-Val-Pro-Pro-Phe-Leu-Gln-Pro-Glu (IPPLTQTPVVVPPFLQPE; SEQ ID NO: 7) at 50 nmol/kg body weight (100 μg/kg body weight), or Asn-Ile-Pro-Pro-Leu-Thr-Gln-Thr-Pro-Val-Val-Val-Pro-Pro-Phe-Leu-Gln-Pro (NIPPLTQTPVVVPPFLQP; SEQ ID NO: 8) at 50 nmol/kg body weight (100 μg/kg body weight), or Thr-Gln-Thr-Pro-Val-Val-Val-Pro-Pro-Phe (TQTPVVVPPF; SEQ ID NO: 9) at 50 nmol/kg body weight (50 μg/kg body weight) were used. The percentage of change in the spontaneous alternation behavior was determined as described in Example 4, and used as an indicator of the spontaneous alternation behavior. The measured values were expressed as mean±standard error for each group. The significance of difference between the control group and the scopolamine control group was tested by Student's t-test. The significance of difference between the scopolamine control group and each peptide-administered group was tested by Dunnett's multiple comparison test after one-way analysis of variance. […]

[2] = test system: memory retention; experiment: novel object recognition test for evaluating memory retention; format: in vivo; conditions: male ddY mice; single oral dose 500 nmol/kg body weight (1,000 μg/kg) 60 min before training trial; retention trial 48 hours later; FIG. 5
Description: Male ddY mice (about 7 weeks old) were used (n=14 to 15), and provided with food and water ad libitum. As a test substance, 500 nmol/kg body weight (1,000 μg/kg body weight) of Asn-Ile-Pro-Pro-Leu-Thr-Gln-Thr-Pro-Val-Val-Val-Pro-Pro-Phe-Leu-Gln-Pro-Glu (SEQ ID NO: 1) was used. The test substance was administered as a single dose orally to mice 60 minutes before performing a novel object recognition test for evaluating memory retention. In the novel object recognition test, a 30×30×30 cm box was used as an experiment device. As a conditioning operation, a mouse was placed in an experiment device in which a floorcloth was laid for 5 minutes, and allowed to explore freely in the device. A training trial was performed the day following the conditioning operation. […] Sixty minutes after orally administering the test substance or water, a mouse was placed in the experiment device for 5 minutes, and the time (second) was measured during which the mouse explored by approaching each object to be within 1 cm therefrom. […] (However, the state in which a mouse rides on an object is excluded.) The percentages of the times were determined during which two objects were explored in each of the training trial and the retention trial. The percentage (%) of the exploration time for each object was expressed as mean±standard error for each of the groups. […]

[3] = single oral dose 50 nmol/kg body weight, vs scopolamine control group, FIG. 3, FIG. 6
[4] = single oral dose 500 nmol/kg body weight, vs scopolamine control group, FIG. 4, FIG. 7, FIG. 9

Row | Sequence | amnesia-preventing action (change in spontaneous alternation behavior) [1, 3] | amnesia-preventing action (change in spontaneous alternation behavior) [1, 4] | also measured
1 | IPPLTQTPVVVPPFLQPE [SEQ ID NO: 7] | shown to have amnesia-preventing actions |  | 
2 | LQSWMHQPHQPLPPTVMFPPQSVL [SEQ ID NO: 4] |  | shown to have amnesia-preventing actions | 
3 | LTQTPVVVPPFLQPE [SEQ ID NO: 13] |  | shown to have amnesia-preventing actions | 
4 | MHQPHQPLPPTVMFPPQSVL [SEQ ID NO: 16] |  | shown to have amnesia-preventing actions | 
5 | NIPPLTQTPVVVPPFLQP [SEQ ID NO: 8] | significant difference compared to the scopolamine control group could not be confirmed |  | 
6 | NIPPLTQTPVVVPPFLQPE [SEQ ID NO: 1] | shown to have amnesia-preventing actions | shown to have amnesia-preventing actions | amnesia-preventing action (change in spontaneous alternation behavior) ([1]; single oral dose 60 min before test, 0.05 nmol/kg body weight to 500 nmol/kg body weight (0.1 to 1,000 μg/kg), FIG. 2): shown to have an amnesia-preventing action; memory-enhancing action (percentage of exploration time for novel object) [2]: shown to have a memory-enhancing action
7 | NIPPLTQTPVVVPPFLQPEVM [SEQ ID NO: 2] | shown to have amnesia-preventing actions |  | 
8 | PLTQTPVVVPPFLQPE [SEQ ID NO: 12] |  | shown to have amnesia-preventing actions | 
9 | PPLTQTPVVVPPFLQPE [SEQ ID NO: 10] |  | shown to have amnesia-preventing actions | 
10 | PVVVPPFLQPE [SEQ ID NO: 14] |  | shown to have amnesia-preventing actions | 
11 | SWMHQPHQPLPPTVMFPPQ [SEQ ID NO: 17] |  | significant difference could not be confirmed | 
12 | SWMHQPHQPLPPTVMFPPQSVL [SEQ ID NO: 3] |  | shown to have amnesia-preventing actions | amnesia-preventing action (change in spontaneous alternation behavior) ([1]; single oral dose 150 nmol/kg body weight to 500 nmol/kg body weight (380 to 1,280 μg/kg), FIG. 8): shown to have an amnesia-preventing action
13 | TQTPVVVPPF [SEQ ID NO: 9] | significant difference compared to the scopolamine control group could not be confirmed |  | 
14 | TQTPVVVPPFLQPE [SEQ ID NO: 11] | shown to have an amnesia-preventing action |  | 
15 | VVVPPFLQPE [SEQ ID NO: 15] |  | shown to have amnesia-preventing actions | 
